Reference: patent US20260130885A1, “ANTIMICROBIAL COMPOSITIONS, PHARMACEUTICAL COMPOSITIONS AND USE THEREOF” (priority 2022, published 2026)
Like-named read-outs stand apart in the source and are kept apart here.

Test system: MRSA USA300
Test: Antibacterial activity assay (MIC by broth microdilution, MBC by subculture)
Type: cell-based, Staphylococcus aureus
Description: The antimicrobial activity was based on MIC and MBC; MIC is the minimum inhibitory concentration and MBC is the minimum bactericidal concentration. The MIC of individual test agents against MRSA USA300 strains was determined using the broth microdilution method according to CLSI guidelines. Briefly, overnight bacterial cultures in LB medium were diluted 1:50 in fresh LB medium and incubated at 37° C. until reaching an OD600 of 0.5 to 0.6. Bacterial suspensions were diluted to a final concentration of 5×10^5 cfu/mL in fresh CAMHB and then exposed to each test agent at increasing doses in triplicate in 96-well plates for 24 hours at 37° C. The MIC of each agent was defined as the lowest concentration without visible bacterial growth. […] The lowest broth dilution that had no viable bacteria was considered the MBC.
Then, the combination effect was measured by calculating their corresponding fractional inhibitory concentration index (FICI) with the equation ΣFIC (FICi)=FICA+FICB=(CombA/MICA)+(CombB/MICB), where MICA and MICB are the MICs of drugs A and B alone, respectively, and CombA and CombB are the concentrations of drugs A and B in combination, respectively. […] was defined as an FICI≤0.5, no interaction was defined as an FICI>0.5-4.0, and antagonism was defined as an FICI>4.

[1] = Staphylococcus aureus, amide compound alone, read-out: MBC
[2] = Staphylococcus aureus, amide compound alone, read-out: MIC

Row | Structure (SMILES) | MIC (+8 mg/L DHA) | MIC [2] | MIC (Staphylococcus aureus, fatty acid alone, read-out: MIC fatty acid) | MBC [1] | MBC (Staphylococcus aureus, fatty acid alone, read-out: MBC fatty acid) | MBC (+8 mg/L DHA)
1 | CC/C=C\C/C=C\C/C=C\C/C=C\C/C=C\CCCC(=O)O [Eicosapentaenoic acid, eicosapentaenoic acid] | – | – | 64 µg/mL | – | 1020 µg/mL | –
2 | C#Cc1cccc(Nc2cncc(Nc3cccc(C#C)c3)n2)c1 [SC5015] | >64 µg/mL | > 64 µg/mL | – | > 64 µg/mL | – | >64 µg/mL
3 | C#Cc1cccc(NC(=O)C2(C(=O)Nc3cccc(C#C)c3)CC2)c1 [SC5021] | 64 µg/mL | > 64 µg/mL | – | > 64 µg/mL | – | 64 µg/mL
4 | O=C(Nc1ccccc1)C(CCCl)C(=O)Nc1ccccc1 [SC5022] | >64 µg/mL | > 64 µg/mL | – | > 64 µg/mL | – | >64 µg/mL
5 | O=C(Nc1cccc(C(F)(F)F)c1)C(CCCl)C(=O)Nc1cccc(C(F)(F)F)c1 [SC5023] | 16 µg/mL | > 64 µg/mL | – | > 64 µg/mL | – | 16 µg/mL
6 | O=C(Nc1ccc(OC(F)(F)F)cc1)C(CCCl)C(=O)Nc1ccc(OC(F)(F)F)cc1 [SC5024] | 8 µg/mL | > 64 µg/mL | – | > 64 µg/mL | – | 8 µg/mL
7 | O=C(Nc1cc(Cl)cc(Cl)c1)C(CCCl)C(=O)Nc1cc(Cl)cc(Cl)c1 [SC5025] | 2 µg/mL | 16 µg/mL | – | 32 µg/mL | – | 2 µg/mL
8 | C#Cc1cccc(NC(=O)C(CCCl)C(=O)Nc2cccc(C#C)c2)c1 [SC5026] | >64 µg/mL | > 64 µg/mL | – | > 64 µg/mL | – | >64 µg/mL
9 | O=C(Nc1cccc(Cl)c1)C(CCCl)C(=O)Nc1cccc(Cl)c1 [SC5027] | 64 µg/mL | > 64 µg/mL | – | > 64 µg/mL | – | >64 µg/mL
10 | O=C(Nc1ccc([N+](=O)[O-])c(C(F)(F)F)c1)C(CCCl)C(=O)Nc1ccc([N+](=O)[O-])c(C(F)(F)F)c1 [SC5034] | 1 µg/mL | 16 µg/mL | – | 32 µg/mL | – | 1 µg/mL
11 | C#Cc1cccc(NC(=O)C(CC=C)C(=O)Nc2cccc(C#C)c2)c1 [SC5038] | >64 µg/mL | > 64 µg/mL | – | > 64 µg/mL | – | >64 µg/mL
12 | C=CCC(C(=O)Nc1cc(Cl)cc(Cl)c1)C(=O)Nc1cc(Cl)cc(Cl)c1 [SC5040] | 0.0039 µg/mL | 1 µg/mL | – | 2 µg/mL | – | 0.125 µg/mL
13 | O=C(Nc1cc(Cl)cc(Cl)c1)C(CCCl)C(=O)Nc1ccc([N+](=O)[O-])c(C(F)(F)F)c1 (stereo not drawn) [SC5041] | 0.0625 µg/mL | 0.5 µg/mL | – | 2 µg/mL | – | 0.0625 µg/mL

Now from value to compound, other results behind:

Row | MIC (+8 mg/L DHA) | MIC [2] | MIC (Staphylococcus aureus, fatty acid alone, read-out: MIC fatty acid) | Structure (SMILES) | MBC [1] | MBC (Staphylococcus aureus, fatty acid alone, read-out: MBC fatty acid) | MBC (+8 mg/L DHA)
14 | 0.125 µg/mL | 32 µg/mL | – | O=C(Nc1ccc2c(c1)OCO2)Nc1ccc(Cl)c(C(F)(F)F)c1 [1-159, reference compound] | 64 µg/mL | – | –
15 | 0.03125 µg/mL | 0.25 µg/mL | – | O=C(Nc1ccc(Cl)c(C(F)(F)F)c1)Nc1cccc(OF)c1OF [1-164, reference compound] | 4 µg/mL | – | –
16 | 0.0078 µg/mL | 0.125 µg/mL | – | O=C(Nc1ccc(Oc2ccccc2)cc1)Nc1ccc(Cl)c(C(F)(F)F)c1 [3-006, reference compound] | 1 µg/mL | – | –
17 | >64 µg/mL | > 64 µg/mL | – | FC(F)(F)c1cc(Nc2cncc(Nc3ccc(Cl)c(C(F)(F)F)c3)n2)ccc1Cl [SC5010] | > 64 µg/mL | – | >64 µg/mL
18 | 0.125 µg/mL | > 64 µg/mL | – | O=C(Nc1ccc(Cl)c(C(F)(F)F)c1)C1(C(=O)Nc2ccc(Cl)c(C(F)(F)F)c2)CC1 [SC5020] | > 64 µg/mL | – | 0.125 µg/mL
19 | 1 µg/mL | 16 µg/mL | – | O=C(Nc1cc(Cl)cc(Cl)c1)C(CCCl)C(=O)Nc1ccc(Cl)c(C(F)(F)F)c1 (stereo not drawn) [SC5035] | 32 µg/mL | – | 2 µg/mL
20 | 0.0039 µg/mL | 1 µg/mL | – | C=CCC(C(=O)Nc1ccc(Cl)c(C(F)(F)F)c1)C(=O)Nc1ccc(Cl)c(C(F)(F)F)c1 [SC5037] | 2 µg/mL | – | 0.0078 µg/mL
